PMC6197089, “Disubstituted piperazine analogues of trifluoromethylphenylpiperazine and methylenedioxybenzylpiperazine: analytical differentiation and serotonin receptor binding studies” (Forensic sciences research, 2018)
Where two headings read alike, the source gives them in different places.

Tests used:
[1] = system: cardiomyoblast h9c2 cells; conditions: cited from earlier work
5-HT1A receptors [2] = molecular target: T1, 5-HT1A receptors (Homo sapiens, UniProt P08908); experiment: PDSP radioligand competition binding, 5-HT1A; conditions: secondary binding assay, average of n = 3
T1 construct: University of North Carolina Psychoactive Drug Screening Project (PDSP), contract testing
T1 sequence (P08908 1-422): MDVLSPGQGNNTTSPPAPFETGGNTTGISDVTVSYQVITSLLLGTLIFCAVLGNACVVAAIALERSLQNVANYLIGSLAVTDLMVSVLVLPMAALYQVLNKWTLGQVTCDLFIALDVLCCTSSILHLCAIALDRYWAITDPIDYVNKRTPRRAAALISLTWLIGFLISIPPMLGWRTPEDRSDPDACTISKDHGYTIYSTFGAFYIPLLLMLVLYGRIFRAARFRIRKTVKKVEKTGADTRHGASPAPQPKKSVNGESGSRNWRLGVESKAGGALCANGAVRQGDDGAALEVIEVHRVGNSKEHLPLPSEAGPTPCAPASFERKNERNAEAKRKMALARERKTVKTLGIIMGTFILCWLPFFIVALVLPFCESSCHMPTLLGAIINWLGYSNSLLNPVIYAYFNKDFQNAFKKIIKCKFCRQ
Procedure: (§1) All six of the hybrid TFMPP–MDBP regioisomers reported in this manuscript were tested for their serotonin receptor and reuptake pump binding profiles by the University of North Carolina's Psychoactive Drug Screening Project (PDSP). Initially, each isomer was tested in a primary assay at a concentration of 10 umol/L for its ability to displace a standard ligand at each serotonin receptor and transporter subtype. […] The Ki (nmol/L) values were obtained from non-linear regression of radioligand competition binding isotherms in this assay and calculated from best-fit inhibitory concentration IC50 values using the Cheng–Prusoff equation. The reported values are the average of three (n = 3) determinations. Further experimental details regarding these receptor assays are presented in the PDSP Protocol Manual available at the PDSP website.

5-HT2A receptors [3] = molecular target: T2, 5-HT2A receptors (Homo sapiens, UniProt P28223); experiment: PDSP radioligand competition binding, 5-HT2A; conditions: for Ki: secondary binding assay, average of n = 3
T2 construct: University of North Carolina Psychoactive Drug Screening Project (PDSP), contract testing
Procedure: as §1

5-HT2B receptors = molecular target: T3, 5-HT2B receptors (Homo sapiens, UniProt P41595); experiment: PDSP radioligand competition binding, 5-HT2B; conditions: secondary binding assay, average of n = 3
T3 construct: University of North Carolina Psychoactive Drug Screening Project (PDSP), contract testing
Procedure: as §1

5-HT2C receptors = molecular target: T4, 5-HT2C receptors (Homo sapiens, UniProt P28335); experiment: PDSP radioligand competition binding, 5-HT2C; conditions: for Ki: secondary binding assay, average of n = 3
T4 construct: University of North Carolina Psychoactive Drug Screening Project (PDSP), contract testing
T4 sequence (P28335 33-458): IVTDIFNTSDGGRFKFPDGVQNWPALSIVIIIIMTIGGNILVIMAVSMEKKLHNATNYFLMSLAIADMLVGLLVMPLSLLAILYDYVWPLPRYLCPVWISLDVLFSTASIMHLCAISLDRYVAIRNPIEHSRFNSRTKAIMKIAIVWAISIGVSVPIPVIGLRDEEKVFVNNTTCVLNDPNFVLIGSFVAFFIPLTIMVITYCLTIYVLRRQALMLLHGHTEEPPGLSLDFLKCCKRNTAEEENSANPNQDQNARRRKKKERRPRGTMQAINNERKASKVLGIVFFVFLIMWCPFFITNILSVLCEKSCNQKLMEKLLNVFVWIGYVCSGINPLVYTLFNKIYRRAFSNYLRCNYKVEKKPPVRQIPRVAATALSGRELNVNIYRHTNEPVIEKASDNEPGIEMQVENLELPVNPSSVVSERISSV
Procedure: as §1

5-HT7 receptors = molecular target: T5, 5-HT7 receptors (Homo sapiens, UniProt P34969); experiment: PDSP radioligand competition binding, 5-HT7; conditions: for Ki: secondary binding assay, average of n = 3
T5 construct: University of North Carolina Psychoactive Drug Screening Project (PDSP), contract testing
Procedure: as §1

[4] = molecular target: T6, SERT (serotonin reuptake pump) (Homo sapiens, UniProt P31645); experiment: PDSP radioligand competition binding, SERT; conditions: for Ki: secondary binding assay, average of n = 3
T6 construct: University of North Carolina Psychoactive Drug Screening Project (PDSP), contract testing
Procedure: as §1

5-HT1A receptors [5] = molecular target: T1, 5-HT1A receptors; conditions: read-out: Ki, 5-HT1A; literature value, no reference given; cited from earlier work
5-HT1B receptors = conditions: literature value, no reference given; cited from earlier work
5-HT1D receptors = conditions: literature value, no reference given; cited from earlier work
5-HT2A receptors [6] = molecular target: T2, 5-HT2A receptors; conditions: read-out: Ki, 5-HT2A; literature value, no reference given; cited from earlier work
SERT = conditions: no reference given, cited from earlier work
[7] = system: 5-HT1A, 5-HT1B, 5-HT1D and 5-HT2C receptors; conditions: literature, no reference given; cited from earlier work
5-HT2A receptor = conditions: literature, no reference given; cited from earlier work
[8] = system: dopamine and norepinephrine reuptake pumps; conditions: literature, no reference given; cited from earlier work
[9] = system: other serotonin receptor subtypes; conditions: literature, no reference given; cited from earlier work

T3 sequence (P41595 whole entry): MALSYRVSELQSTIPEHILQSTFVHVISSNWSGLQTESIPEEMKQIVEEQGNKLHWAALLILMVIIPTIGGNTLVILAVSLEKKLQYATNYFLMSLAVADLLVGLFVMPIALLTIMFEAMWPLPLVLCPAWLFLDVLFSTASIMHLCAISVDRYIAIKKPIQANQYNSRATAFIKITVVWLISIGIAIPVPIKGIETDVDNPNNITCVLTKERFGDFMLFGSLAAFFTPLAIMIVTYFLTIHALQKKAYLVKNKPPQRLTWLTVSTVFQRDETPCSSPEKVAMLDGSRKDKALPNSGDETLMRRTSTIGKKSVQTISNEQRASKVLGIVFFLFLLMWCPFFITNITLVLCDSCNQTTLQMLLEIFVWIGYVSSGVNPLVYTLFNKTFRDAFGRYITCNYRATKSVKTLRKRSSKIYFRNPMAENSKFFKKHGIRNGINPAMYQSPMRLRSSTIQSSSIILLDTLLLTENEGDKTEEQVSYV
T2 sequence (P28223 whole entry): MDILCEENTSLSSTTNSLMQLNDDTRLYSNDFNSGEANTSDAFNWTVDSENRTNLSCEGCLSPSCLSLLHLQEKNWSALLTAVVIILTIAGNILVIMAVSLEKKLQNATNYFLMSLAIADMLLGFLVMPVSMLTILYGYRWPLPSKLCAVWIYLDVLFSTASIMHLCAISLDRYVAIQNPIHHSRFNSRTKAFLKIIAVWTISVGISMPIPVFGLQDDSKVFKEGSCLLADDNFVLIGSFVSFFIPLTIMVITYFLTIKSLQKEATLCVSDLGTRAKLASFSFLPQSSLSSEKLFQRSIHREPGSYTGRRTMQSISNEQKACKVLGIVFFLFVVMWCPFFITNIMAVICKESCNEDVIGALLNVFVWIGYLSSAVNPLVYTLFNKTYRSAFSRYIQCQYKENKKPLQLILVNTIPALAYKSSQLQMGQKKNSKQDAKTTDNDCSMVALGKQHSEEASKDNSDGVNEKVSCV
T5 sequence (P34969 whole entry): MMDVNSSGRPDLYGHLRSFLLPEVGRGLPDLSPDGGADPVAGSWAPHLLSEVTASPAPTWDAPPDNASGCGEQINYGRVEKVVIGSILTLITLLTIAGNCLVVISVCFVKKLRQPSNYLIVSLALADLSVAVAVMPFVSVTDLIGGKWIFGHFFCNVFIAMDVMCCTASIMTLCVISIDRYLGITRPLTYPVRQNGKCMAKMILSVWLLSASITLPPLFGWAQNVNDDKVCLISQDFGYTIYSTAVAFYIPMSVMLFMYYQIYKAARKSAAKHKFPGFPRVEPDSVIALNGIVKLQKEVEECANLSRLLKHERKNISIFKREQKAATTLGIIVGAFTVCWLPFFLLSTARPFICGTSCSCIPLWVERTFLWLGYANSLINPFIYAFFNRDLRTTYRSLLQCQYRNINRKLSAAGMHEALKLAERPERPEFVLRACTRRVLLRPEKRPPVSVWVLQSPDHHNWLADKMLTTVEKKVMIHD
T6 sequence (P31645 whole entry, species assumed): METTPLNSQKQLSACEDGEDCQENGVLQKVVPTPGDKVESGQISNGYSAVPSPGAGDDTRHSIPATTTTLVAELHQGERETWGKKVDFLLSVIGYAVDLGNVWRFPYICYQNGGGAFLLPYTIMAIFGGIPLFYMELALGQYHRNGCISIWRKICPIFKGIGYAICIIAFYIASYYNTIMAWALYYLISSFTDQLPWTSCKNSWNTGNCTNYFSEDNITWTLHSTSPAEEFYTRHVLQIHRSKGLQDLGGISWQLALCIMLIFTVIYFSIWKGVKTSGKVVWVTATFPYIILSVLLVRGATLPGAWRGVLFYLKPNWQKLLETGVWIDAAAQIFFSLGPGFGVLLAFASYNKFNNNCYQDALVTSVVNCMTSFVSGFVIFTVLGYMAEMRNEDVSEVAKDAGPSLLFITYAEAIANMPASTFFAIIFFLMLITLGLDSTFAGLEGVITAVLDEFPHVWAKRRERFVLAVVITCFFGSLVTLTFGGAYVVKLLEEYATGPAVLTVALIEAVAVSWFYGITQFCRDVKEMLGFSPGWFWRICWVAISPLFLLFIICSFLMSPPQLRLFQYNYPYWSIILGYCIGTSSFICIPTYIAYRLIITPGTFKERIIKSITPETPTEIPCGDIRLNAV

| SMILES | Ki (5-HT1A receptors [2]) [nM] | Ki (5-HT2A receptors [3]) [nM] | Ki (5-HT2B receptors) [nM] | binding to 5-HT2C receptors, in words (5-HT2C receptors) | Ki (5-HT2C receptors) [nM] | binding by 5-HT7 receptors, in words (5-HT7 receptors) | Ki (5-HT7 receptors) [nM] | Ki [4] [nM] | also measured |
| --- | --- | --- | --- | --- | --- | --- | --- | --- | --- |
| c1cc2c(cc1CN1CCNCC1)OCO2 [3,4-MDBP, 1-(3,4-methylenedioxybenzyl) piperazine] | – | – | – | – | – | – | – | – | intracellular calcium levels [1]: significant increase; mitochondrial membrane potential [1]: decrease |
| FC(F)(F)c1ccccc1N1CCN(Cc2cccc3c2OCO3)CC1 [Compound 1, 2-TFMPP-2,3-MDBP] | > 1000 | > 1000 | 74.5 | modest binding | 868 | bound by 5-HT7 receptors | 165 | > 1000 | binding by 5-HT7 receptors, in words (5-HT7 receptors; listed as 2-TFMPP-2,3-MDBP): highest affinity |
| FC(F)(F)c1cccc(N2CCN(Cc3cccc4c3OCO4)CC2)c1 [Compound 2, 3-TFMPP-2,3-MDBP] | 864 | 372 | 203 | modest binding | 753 | bound by 5-HT7 receptors | 747 | > 1000 | affinity at 5-HT2A receptors compared to 3-TFMPP, in words (5-HT2A receptors [3]): retained activity comparable to the parent designer drug |
| FC(F)(F)c1ccc(N2CCN(Cc3cccc4c3OCO4)CC2)cc1 [Compound 3, 4-TFMPP-2,3-MD] | > 1000 | > 1000 | 870 | – | > 1000 | – | > 1000 | > 1000 | – |
| FC(F)(F)c1cccc(N2CCNCC2)c1 [Compound 3-TFMPP, 1-(3-trifluoromethylphenyl) piperazine] | – | – | – | – | – | – | – | – | Ki (5-HT1A receptors [5]): 288 nM; Ki (5-HT1B receptors): 132 nM; Ki (5-HT1D receptors): 282 nM; Ki (5-HT2A receptors [6]): 269 nM; EC50 (SERT; literature value, read-out: effective concentration (EC50) at SERT): 121 nM; serotonin release, in words (SERT; literature): promotes serotonin release; functional activity at all sites except 5-HT2A [7]: full agonist; functional activity at the 5-HT2A receptor (5-HT2A receptor): weak partial agonist or antagonist; effects on dopamine and norepinephrine reuptake pumps [8]: no effects; affinity for other serotonin receptor subtypes, in words [9]: does not show significant affinity; intracellular calcium levels [1]: significant increase; mitochondrial membrane potential [1]: decrease |
| FC(F)(F)c1ccccc1N1CCN(Cc2ccc3c(c2)OCO3)CC1 [Compound 4, 2-TFMPP-3,4-MDBP] | > 1000 | > 1000 | 81 | modest binding | 924 | bound by 5-HT7 receptors | 462 | > 1000 | – |
| FC(F)(F)c1cccc(N2CCN(Cc3ccc4c(c3)OCO4)CC2)c1 [Compound 5, 3-TFMPP-3,4-MDBP] | 188 | > 1000 | 116 | modest binding | 430 | bound by 5-HT7 receptors | 516 | > 1000 | – |
| FC(F)(F)c1ccc(N2CCN(Cc3ccc4c(c3)OCO4)CC2)cc1 [Compound 6, 4-TFMPP-3,4-MDBP] | > 1000 | > 1000 | 247 | – | > 1000 | – | > 1000 | 722 | affinity for SERT pumps, in words [4]: significant affinity; potency at SERT relative to monosubstituted 3-TFMPP [4]: about six-times less potent |
